Assay results taken from US20140171431A1, “AZOLE HETEROCYCLIC COMPOUND, PREPARATION METHOD, PHARMACEUTICAL COMPOSITION AND USE” (priority 2011, published 2014).
Read-outs that look alike come from different tables or passages of the source.

Columns and labels:
[1] = biological target: T1, Lp-PLA2 in rabbit serum (Oryctolagus cuniculus, UniProt G1SE06); test: In vitro inhibitory activity towards the enzyme Lp-PLA2 in rabbit serum, [3H]PAF substrate; format: biochemical; conditions: 100 nM
T1 construct: from tissue; host or cells: rabbit serum
T1 sequence (G1SE06 22-423): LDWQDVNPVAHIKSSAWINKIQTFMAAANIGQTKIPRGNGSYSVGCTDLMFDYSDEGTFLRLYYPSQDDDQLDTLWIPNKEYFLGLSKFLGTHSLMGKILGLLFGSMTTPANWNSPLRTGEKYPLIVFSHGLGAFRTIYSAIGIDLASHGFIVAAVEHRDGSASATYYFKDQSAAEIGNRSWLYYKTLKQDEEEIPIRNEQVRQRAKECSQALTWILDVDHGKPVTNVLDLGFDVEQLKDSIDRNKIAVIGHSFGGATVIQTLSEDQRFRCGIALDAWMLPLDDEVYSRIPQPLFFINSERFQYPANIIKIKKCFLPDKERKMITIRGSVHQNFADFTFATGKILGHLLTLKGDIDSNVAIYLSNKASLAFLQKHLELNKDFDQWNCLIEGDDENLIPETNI

[2] = biological target: T2, Lp-PLA2 in human serum (Homo sapiens, UniProt Q13093); test: In vitro inhibitory activity towards the enzyme Lp-PLA2 in human serum, [3H]PAF substrate; format: biochemical; conditions: for inhibition at 0.01 µM: 10 nM; for inhibition at 0.1 µM: 100 nM
T2 construct: from tissue
T2 sequence (Q13093 22-441): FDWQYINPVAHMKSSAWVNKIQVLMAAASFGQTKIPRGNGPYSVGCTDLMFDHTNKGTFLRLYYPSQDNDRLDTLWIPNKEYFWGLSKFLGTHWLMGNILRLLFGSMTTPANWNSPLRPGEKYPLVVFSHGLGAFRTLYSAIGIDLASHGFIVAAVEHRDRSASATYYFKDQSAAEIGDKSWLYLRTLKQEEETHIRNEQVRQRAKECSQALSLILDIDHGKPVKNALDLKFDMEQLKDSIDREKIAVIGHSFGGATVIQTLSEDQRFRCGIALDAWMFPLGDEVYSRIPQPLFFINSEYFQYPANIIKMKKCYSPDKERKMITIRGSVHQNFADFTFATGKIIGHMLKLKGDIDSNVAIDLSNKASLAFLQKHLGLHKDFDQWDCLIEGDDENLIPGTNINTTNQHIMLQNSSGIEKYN
Procedure: The activities of compounds were measured using [^3H] labeled platelet activating factor ([^3H]PAF, Perkinelmer, Lot NET910) as the substrate. The reaction was carried out in a system containing 50 mmol/l HEPES and 150 mmol/l NaCl (pH 7.4) in a total volume of 200 μl. First, 10 μL human plasma and 10 μl DMSO solution of the test compound were added to the system and preincubated for 10 min at 37° C. Then 20 nM [^3H]PAF was added as listed in table 1 to start the reaction and incubated for a further 10 min at 37° C. After that, 600 μl of CHCl3/MeOH (2:1) was added and the resulting mixture was mixed with vortex. After settled for a while, the mixture was centrifugated at 12000×g for 15 min. The supernatant was transferred to a new tube and 200 μl of CHCl3 was added and mixed by vortexing. The mixture was settled or centrifugated for 2 min. A 100 μl portion of the supernatant was then collected for radioactivity intensity measurement.

[3] = rabbit serum, read-out: inhibition, %
[4] = human serum, read-out: inhibition, %
[5] = read-out: inhibitory rate towards the rabbit serum derived Lp-PLA2 enzyme
[6] = read-out: inhibitory rate towards the human serum derived Lp-PLA2 enzyme

Compound	inhibition at 0.1 µM [1, 3]	inhibition at 0.01 µM [2, 4]	inhibition at 0.1 µM ([2]; human serum)	inhibition at 0.1 µM [1, 5]	inhibition at 0.01 µM [2, 6]
O=c1nc(SCc2ccc(F)cc2)n(Cc2nnc(CN3CCC(F)(F)C3)n2Cc2ccc(-c3ccc(C(F)(F)F)cc3)cc2)c2c1CCC2 [Example 104, 1-((5-((3,3-difluoropyrrolidin-1-yl)methyl)-4-((4′-(trifluoromethyl)biphenyl-4-yl)methyl)-4H-1,2,4-triazol-3-yl)methyl)-2-(4-fluorobenzylthio)-6,7-dihydro-1H-cyclopenta[d]pyrimidin-4(5H)-one]	67%	53%	86%		
O=c1nc(SCc2ccc(F)cc2)n(Cc2nnc(CSCc3ccc(F)cc3)n2Cc2ccc(-c3ccc(C(F)(F)F)cc3)cc2)c2c1CCC2 [Example 115, 2-(4-fluorobenzylthio)-1-((5-((4-fluorobenzylthio)methyl)-4-((4′-(trifluoromethyl)biphenyl-4-yl)methyl)-4H-1,2,4-triazol-3-yl)methyl)-6,7-dihydro-1H-cyclopenta[d]pyrimidin-4(5H)-one]	78%	77%			
O=c1nc(SCc2ccc(F)cc2)n(Cc2ncn(Cc3ccc(-c4ccc(C(F)(F)F)cc4)cc3)n2)c2c1CCC2 [Example 61, 2-(4-fluorobenzylthio)-1-((1-((4′-(trifluoromethyl)biphenyl-4-yl)methyl)-1H-1,2,4-triazol-3-yl)methyl)-6,7-dihydro-1H-cyclopenta[d]pyrimidin-4(5H)-one]	61%	59%	91%		
O=c1nc(SCc2ccc(F)cc2)n(Cc2nnc(COCCO)n2Cc2ccc(-c3ccc(C(F)(F)F)cc3)cc2)c2c1CCC2 [Example 123, 2-(4-fluorobenzylthio)-1-((5-((2-hydroxyethoxy)methyl)-4-((4′-(trifluoromethyl)biphenyl-4-yl)methyl)-4H-1,2,4-triazol-3-yl)methyl)-6,7-dihydro-1H-cyclopenta[d]pyrimidin-4(5H)-one]	88%	76%			
CCN(CC)Cc1nnc(Cn2c(SCc3ccc(F)cc3)nc(=O)c3c2CCC3)n1Cc1ccc(-c2ccc(C(F)(F)F)cc2)cc1 [Example 79, 1-((5-((diethylamino)methyl)-4-((4′-(trifluoromethyl)biphenyl-4-yl)methyl)-4H-1,2,4-triazol-3-yl)methyl)-2-(4-fluorobenzylthio)-6,7-dihydro-1H-cyclopenta[d]pyrimidin-4(5H)-one]	85.3%	68%	93%		
O=c1nc(SCc2ccc(F)cc2)n(Cc2ncc(CN3CCN(Cc4ccccc4)CC3)n2Cc2ccc(-c3ccc(C(F)(F)F)cc3)cc2)c2c1CCC2 [Example 45, 1-((5-((4-benzylpiperazin-1-yl)methyl)-1-((4′-(trifluoromethyl)biphenyl-4-yl)methyl)-1H-imidazol-2-yl)methyl)-2-(4-fluorobenzylthio)-6,7-dihydro-1H-cyclopenta[d]pyrimidin-4(5H)-one]	87%	56%	90%		
CC(NCCN(C)C)c1nnc(Cn2c(SCc3ccc(F)cc3)nc(=O)c3c2CCC3)n1Cc1ccc(-c2ccc(C(F)(F)F)cc2)cc1 (stereo not shown) [Example 128, 1-((5-(1-(2-(dimethylamino)ethylamino)ethyl)-4-((4′-(trifluoromethyl)biphenyl-4-yl)methyl)-4H-1,2,4-triazol-3-yl)methyl)-2-(4-fluorobenzylthio)-6,7-dihydro-1H-cyclopenta[d]pyrimidin-4(5H)-one]	94%	90%		> 90%	> 80%
C[C@@H]1CN(Cc2nnc(Cn3c(SCc4ccc(F)cc4)nc(=O)c4c3CCC4)n2Cc2ccc(-c3ccc(C(F)(F)F)cc3)cc2)C[C@H](C)O1 [Example 84, 1-((5-(((2S,6R)-2,6-dimethylmorpholino)methyl)-4-((4′-(trifluoromethyl)biphenyl-4-yl)methyl)-4H-1,2,4-triazol-3-yl)methyl)-2-(4-fluorobenzylthio)-6,7-dihydro-1H-cyclopenta[d]pyrimidin-4(5H)-one]	76%	69%	91%		
O=C1NCCN1Cc1nnc(Cn2c(SCc3ccc(F)cc3)nc(=O)c3c2CCC3)n1Cc1ccc(-c2ccc(C(F)(F)F)cc2)cc1 [Example 112, 2-(4-fluorobenzylthio)-1-((5-((2-oxoimidazolidin-1-yl)methyl)-4-((4′-(trifluoromethyl)biphenyl-4-yl)methyl)-4H-1,2,4-triazol-3-yl)methyl)-6,7-dihydro-1H-cyclopenta[d]pyrimidin-4(5H)-one]	63%	56%	87%		
CN(C)C(=O)c1cnc(Cn2c(SCc3ccc(F)cc3)nc(=O)c3c2CCC3)n1Cc1ccc(-c2ccc(C(F)(F)F)cc2)cc1 [Example 52, 2-((2-(4-fluorobenzylthio)-4-oxo-4,5,6,7-tetrahydro-1H-cyclopenta[d]pyrimidin-1-yl)methyl)-N,N-dimethyl-1-((4′-(trifluoromethyl)biphenyl-4-yl)methyl)-1H-imid azole-5-carboxamide]	90%	97%	99%	> 90%	> 80%
CN(C)/N=C/c1nnc(Cn2c(SCc3ccc(F)cc3)nc(=O)c3c2CCC3)n1Cc1ccc(-c2ccc(C(F)(F)F)cc2)cc1 [Example 116, (E)-1-((5-((2,2-dimethylhydrazono)methyl)-4-((4′-(trifluoromethyl)biphenyl-4-yl)methyl)-4H-1,2,4-triazol-3-yl)methyl)-2-(4-fluorobenzylthio)-6,7-dihydro-1H-cyclopenta[d]pyrimidin-4(5H)-one]	94%	88%	100%	> 90%	> 80%
CCN1CCN(Cc2nnc(Cn3c(SCc4ccc(F)cc4)nc(=O)c4c3CCC4)n2Cc2ccc(-c3ccc(C(F)(F)F)cc3)cc2)CC1 [Example 86, 1-((5-((4-ethylpiperazin-1-yl)methyl)-4-((4′-(trifluoromethyl)biphenyl-4-yl)methyl)-4H-1,2,4-triazol-3-yl)methyl)-2-(4-fluorobenzylthio)-6,7-dihydro-1H-cyclopenta[d]pyrimidin-4(5H)-one]	90%	82%	96%	> 90%	> 80%
Cc1nnc(Cn2cc(Cc3cnn(C)c3)c(=O)nc2SCc2ccc(F)cc2)n1Cc1ccc(-c2ccc(C(F)(F)F)cc2)cc1 [Example 65, 2-(4-fluorobenzylthio)-5-((1-methyl-1H-pyrazol-4-yl)methyl)-1-((5-methyl-4-((4′-(trifluoromethyl)biphenyl-4-yl)methyl)-4H-1,2,4-triazol-3-yl)methyl)pyrimidin-4(1H)-one]	60%	82%	96%		
CC(=O)NCc1nnc(Cn2c(SCc3ccc(F)cc3)nc(=O)c3c2CCC3)n1Cc1ccc(-c2ccc(C(F)(F)F)cc2)cc1 [Example 110, N-((5-((2-(4-fluorobenzylthio)-4-oxo-4,5,6,7-tetrahydro-1H-cyclopenta[d]pyrimidin-1-yl)methyl)-4-((4′-(trifluoromethyl)biphenyl-4-yl)methyl)-4H-1,2,4-triazol-3-yl)methyl)acetamide]	67%	67%	83%		
CN(C)CCNCc1nnc(Cn2c(SCc3ccc(F)cc3)nc(=O)c3c2CCC3)n1Cc1ccc(-c2ccc(C(F)(F)F)cc2)cc1 [Example 105, 1-((5-((2-(dimethylamino)ethylamino)methyl)-4-((4′-(trifluoromethyl)biphenyl-4-yl)methyl)-4H-1,2,4-triazol-3-yl)methyl)-2-(4-fluorobenzylthio)-6,7-dihydro-1H-cyclopenta[d]pyrimidin-4(5H)-one]	98%	72%			
